Laboratory results from patent US9567302B2, “Carbamate compounds and of making and using same” (Abide Therapeutics, Inc., priority 2012, dated 2017).

Legend:
Assay type in all cases: biochemical
Design in all cases: from tissue; host or cells: mouse brain membrane fraction
Details in all cases: Table 2, mouse proteome, 30 min preincubation at 37° C.
MAGL = target: T1, MAGL (Mus musculus, UniProt O35678); test: In vitro competitive activity-based protein profiling (FP-Rh), mouse MAGL
T1 sequence (O35678 1-303): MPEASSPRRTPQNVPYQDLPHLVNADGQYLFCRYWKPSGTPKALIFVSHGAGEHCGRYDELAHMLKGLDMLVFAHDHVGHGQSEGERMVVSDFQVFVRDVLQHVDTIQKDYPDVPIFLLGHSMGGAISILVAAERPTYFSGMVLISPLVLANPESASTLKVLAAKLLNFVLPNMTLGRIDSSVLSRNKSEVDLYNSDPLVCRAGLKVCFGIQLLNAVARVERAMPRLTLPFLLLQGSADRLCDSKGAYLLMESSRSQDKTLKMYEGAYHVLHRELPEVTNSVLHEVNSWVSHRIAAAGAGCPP
Procedure: (§1) In Vitro Competitive Activity-Based Protein Profiling.
(§2) Proteomes (mouse brain membrane fraction or cell lysates) (50 μL, 1.0 mg/ml total protein concentration) were preincubated with varying concentrations of inhibitors at 37° C. After 30 min, FP-Rh (1.0 μL, 50 μM in DMSO) was added and the mixture was incubated for another 30 min at 37° C. Reactions were quenched with SDS loading buffer (50 μL—4×) and run on SDS-PAGE.

ABHD6 = target: T2, ABHD6 (Mus musculus, UniProt Q8R2Y0); test: In vitro competitive activity-based protein profiling (FP-Rh), mouse ABHD6
T2 sequence (Q8R2Y0 1-336): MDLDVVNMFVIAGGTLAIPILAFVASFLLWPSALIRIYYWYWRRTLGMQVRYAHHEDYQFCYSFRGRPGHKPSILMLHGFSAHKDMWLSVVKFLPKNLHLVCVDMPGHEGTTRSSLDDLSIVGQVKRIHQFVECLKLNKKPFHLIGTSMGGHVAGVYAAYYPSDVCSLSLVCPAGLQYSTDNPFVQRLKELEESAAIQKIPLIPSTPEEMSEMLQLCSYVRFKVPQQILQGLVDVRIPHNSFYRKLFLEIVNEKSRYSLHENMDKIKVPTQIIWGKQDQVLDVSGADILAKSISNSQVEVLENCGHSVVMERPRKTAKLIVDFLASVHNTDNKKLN
Procedure: as §1, §2

FAAH = target: T3, FAAH (Mus musculus, UniProt O08914); test: In vitro competitive activity-based protein profiling (FP-Rh), mouse FAAH
T3 sequence (O08914 1-579): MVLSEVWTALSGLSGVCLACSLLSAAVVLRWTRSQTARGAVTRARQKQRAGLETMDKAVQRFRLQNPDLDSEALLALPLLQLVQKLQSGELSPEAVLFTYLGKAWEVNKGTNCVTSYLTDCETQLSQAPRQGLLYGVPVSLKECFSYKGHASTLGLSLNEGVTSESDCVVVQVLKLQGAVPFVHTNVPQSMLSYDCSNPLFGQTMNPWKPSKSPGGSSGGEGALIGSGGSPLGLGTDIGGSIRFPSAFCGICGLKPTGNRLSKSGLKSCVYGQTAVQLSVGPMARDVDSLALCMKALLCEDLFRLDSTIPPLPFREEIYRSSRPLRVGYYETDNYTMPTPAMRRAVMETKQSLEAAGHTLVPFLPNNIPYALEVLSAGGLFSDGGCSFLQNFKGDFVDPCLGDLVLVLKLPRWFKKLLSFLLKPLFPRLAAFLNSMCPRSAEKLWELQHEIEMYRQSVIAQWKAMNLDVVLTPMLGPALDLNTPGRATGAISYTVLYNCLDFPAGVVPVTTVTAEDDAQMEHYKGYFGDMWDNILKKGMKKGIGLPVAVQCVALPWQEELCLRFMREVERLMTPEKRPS
Procedure: as §1, §2

SMILES	IC50 (MAGL) [nM]	IC50 (ABHD6) [nM]	IC50 (FAAH) [nM]
O=C(ON1C(=O)CCC1=O)N1CCN(Cc2ccc(Cl)cc2N2CCC3(CCOCC3)C2)CC1 [Example 109, 2,5-Dioxopyrrolidin-1-yl 4-[(4-chloro-2-{8-oxa-2-azaspiro[4.5]decan-2-yl}phenyl)methyl]piperazine-1-carboxylate]	< 100	1000 to 10000	> 10000
O=C(ON1C(=O)CCC1=O)N1CCN(Cc2ccc(Cl)cc2N2Cc3cccnc3C2)CC1 [Example 114, 2,5-Dioxopyrrolidin-1-yl 4-[(4-chloro-2-{5H,6H,7H-pyrrolo[3,4-b]pyridin-6-yl}phenyl)methyl]piperazine-1-carboxylate]	< 100	100 to 1000	> 10000
CC(=O)N1CCN(c2cc(Cl)ccc2CN2CCN(C(=O)ON3C(=O)CCC3=O)CC2)CC1 [Example 115, 2,5-Dioxopyrrolidin-1-yl 4-{[2-(4-acetylpiperazin-1-yl)-4-chlorophenyl]methyl}piperazine-1-carboxylate]	100 to 1000	1000 to 10000	> 10000
COC(=O)c1cc(CN2CCN(C(=O)ON3C(=O)CCC3=O)CC2)ccc1N1CCOCC1 [Example 118, 2,5-Dioxopyrrolidin-1-yl 4-(3-(methoxycarbonyl)-4-morpholinobenzyl)piperazine-1-carboxylate]	1000 to 10000	1000 to 10000	> 10000
Cc1c(CN2CCN(C(=O)ON3C(=O)CCC3=O)CC2)cccc1N1CCOCC1 [Example 121, 2,5-Dioxopyrrolidin-1-yl 4-(2-methyl-3-morpholinobenzyl)piperazine-1-carboxylate]	< 100	100 to 1000	> 10000
Cc1c(CN2CCN(C(=O)ON3C(=O)CCC3=O)CC2)cccc1N1CCCC1 [Example 123, 2,5-Dioxopyrrolidin-1-yl 4-(2-methyl-3-(pyrrolidin-1-yl)benzyl)piperazine-1-carboxylate]	< 100	100 to 1000	> 10000
O=C(ON1C(=O)CCC1=O)N1CCN(Cc2ccc(F)c(N3CCCC3)c2)CC1 [Example 124, 2,5-Dioxopyrrolidin-1-yl 4-(4-fluoro-3-(pyrrolidin-1-yl)benzyl)piperazine-1-carboxylate]	< 100	100 to 1000	> 10000
O=C(ON1C(=O)CCC1=O)N1CCN(Cc2ccc(Cl)cc2N2CCCCC2)CC1 [Example 129, 2,5-Dioxopyrrolidin-1-yl 4-(4-chloro-2-(piperidin-1-yl)benzyl)piperazine-1-carboxylate]	< 100	100 to 1000	> 10000
O=C(ON1C(=O)CCC1=O)N1CCN(Cc2ccc(Cl)cc2N2CC3CCC(C2)O3)CC1 [Example 130, 2,5-Dioxopyrrolidin-1-yl 4-(2-(8-oxa-3-azabicyclo[3.2.1]octan-3-yl)-4-chlorobenzyl)piperazine-1-carboxylate]	< 100	1000 to 10000	> 10000
O=C(ON1C(=O)CCC1=O)N1CCN(Cc2ccc(Cl)cc2N2CCOC3CCCC32)CC1 (stereo not drawn) [Example 131, 2,5-Dioxopyrrolidin-1-yl 4-(4-chloro-2-(hexahydrocyclopenta[b][1,4]oxazin-4(4aH)-yl)benzyl)piperazine-1-carboxylate]	< 100	1000 to 10000	> 10000

Next, values leading:

IC50 (MAGL) [nM]	IC50 (ABHD6) [nM]	IC50 (FAAH) [nM]	SMILES
< 100	100 to 1000	> 10000	O=C(ON1C(=O)CCC1=O)N1CCN(Cc2cc(Cl)cc(N3CCCCC3)c2)CC1 [Example 132, 2,5-Dioxopyrrolidin-1-yl 4-(3-chloro-5-(piperidin-1-yl)benzyl)piperazine-1-carboxylate]
< 100	< 100	> 10000	O=C(ON1C(=O)CCC1=O)N1CCN(Cc2cccc(N3CCCCC3)c2)CC1 [Example 133, 2,5-Dioxopyrrolidin-1-yl 4-(3-(piperidin-1-yl)benzyl)piperazine-1-carboxylate]
1000 to 10000	1000 to 10000	> 10000	O=C1COc2ccc(CN3CCN(C(=O)ON4C(=O)CCC4=O)CC3)cc2N1 [Example 134, 2,5-Dioxopyrrolidin-1-yl 4-((3-oxo-3,4-dihydro-2H-benzo[b][1,4]oxazin-6-yl)methyl)piperazine-1-carboxylate]
1000 to 10000	100 to 1000	1000 to 10000	Cc1nn(-c2ccccc2)cc1CN1CCN(C(=O)ON2C(=O)CCC2=O)CC1 [Example 138, 2,5-Dioxopyrrolidin-1-yl 4-((3-methyl-1-phenyl-1H-pyrazol-4-yl)methyl)piperazine-1-carboxylate]
100 to 1000	100 to 1000	> 10000	Cn1nc(-c2ccccc2)cc1CN1CCN(C(=O)ON2C(=O)CCC2=O)CC1 [Example 139, 2,5-dioxopyrrolidin-1-yl 4-((1-methyl-3-phenyl-1H-pyrazol-5-yl)methyl)piperazine-1-carboxylate]
100 to 1000	1000 to 10000	> 10000	Cc1nc(-c2ccccc2)oc1CN1CCN(C(=O)ON2C(=O)CCC2=O)CC1 [Example 143, 2,5-Dioxopyrrolidin-1-yl 4-((4-methyl-2-phenyloxazol-5-yl)methyl)piperazine-1-carboxylate]
1000 to 10000	100 to 1000	> 10000	Cc1nc2ccc(Cl)cn2c1CN1CCN(C(=O)ON2C(=O)CCC2=O)CC1 [Example 144]
1000 to 10000	1000 to 10000	> 10000	O=C(ON1C(=O)CCC1=O)N1CCN(Cc2cnc3ccc(Cl)cn23)CC1 [Example 145, 2,5-Dioxopyrrolidin-1-yl 4-((6-chloroimidazo[1,2-a]pyridin-3-yl)methyl)piperazine-1-carboxylate]
1000 to 10000	1000 to 10000	> 10000	Cc1nc(N2CCCCC2)sc1CN1CCN(C(=O)ON2C(=O)CCC2=O)CC1 [Example 148, 2,5-Dioxopyrrolidin-1-yl 4-((4-methyl-2-(piperidin-1-yl)thiazol-5-yl)methyl)piperazine-1-carboxylate]
1000 to 10000	1000 to 10000	> 10000	Cn1cc(CN2CCN(C(=O)ON3C(=O)CCC3=O)CC2)c(-c2ccccc2)n1 [Example 149, 2,5-Dioxopyrrolidin-1-yl 4-((1-methyl-3-phenyl-1H-pyrazol-4-yl)methyl)piperazine-1-carboxylate]
1000 to 10000	1000 to 10000	1000 to 10000	O=C(ON1C(=O)CCC1=O)N1CCN(C(c2cocn2)c2cocn2)CC1 [Example 152, 2,5-Dioxopyrrolidin-1-yl 4-(bis(oxazol-4-yl)methyl)piperazine-1-carboxylate]
100 to 1000	1000 to 10000	> 10000	Cc1cc(Cl)ccc1C(c1ccc(Cl)cc1C)N1CCN(C(=O)ON2C(=O)CCC2=O)CC1 [Example 153, 2,5-Dioxopyrrolidin-1-yl 4-(bis(4-chloro-2-methylphenyl)methyl)piperazine-1-carboxylate]
100 to 1000	100 to 1000	1000 to 10000	Cc1cc(-c2ccccc2)ccc1CN1CCN(C(=O)ON2C(=O)CCC2=O)CC1 [Example 165, 2,5-Dioxopyrrolidin-1-yl 4-[(2-methyl-4-phenylphenyl)methyl]piperazine-1-carboxylate]
100 to 1000	1000 to 10000	> 10000	CC(C)c1cc(-c2ccccc2)ccc1CN1CCN(C(=O)ON2C(=O)CCC2=O)CC1 [Example 188, 2,5-Dioxopyrrolidin-1-yl 4-{[4-phenyl-2-(propan-2-yl)phenyl]methyl}piperazine-1-carboxylate]
100 to 1000	1000 to 10000	> 10000	CN(C)C(=O)c1cc(-c2ccccc2)ccc1CN1CCN(C(=O)ON2C(=O)CCC2=O)CC1 [Example 189, 2,5-Dioxopyrrolidin-1-yl 4-{[2-(dimethylcarbamoyl)-4-phenylphenyl]methyl}piperazine-1-carboxylate]
